{"source": "patent US20240161653A1", "about": "“IN VITRO MODEL DEVICE FOR PLACENTAL BARRIER” (CFD Research Corporation, priority 2022, published 2024)", "key": {"[1]": {"test_system": "placental barrier of the in vitro placenta device (coculture of Bewo trophoblasts and HUVEC)", "assay": "Maternal-placental size exclusion permeability assay in the in vitro placenta device", "format": "in vitro ADME, human", "details": "injected into maternal vascular channel at 0.1 μL/min for 1 hour; PI = ratio of sum ROIs trophoblast to maternal vascular channel; FIG. 9B", "protocol": "Again, devices can be placed in the incubator.\nIn another example, one embodiment of the present invention was used to evaluate maternal-placental size exclusion, where a fluorescein sodium salt (FSS) solution was injected into the maternal vascular channel at 0.1 μL/min for 1 hour. […] PI was expected to decrease as a function of compound molecular weight."}, "[2]": {"test_system": "intervillous space-trophoblast barrier", "assay": "Morphological effects of toxic exposure in the in vitro placenta device", "format": "cell-based", "details": "injected into maternal channel at 3 μL/min for 4 min, then incubated at 37° C. for 15 min; FIG. 10", "from_the_text": "In some embodiments, the in vitro placental model device can be used for studying toxicity of test agents to the placenta. Certain compounds not only induce fetal toxicity upon crossing the placental barrier, but also disrupt the barrier itself. The microfluidic placental barrier model can be used to study response to toxic exposure of test agents. The impact to barrier function can be assessed through permeability comparisons and toxicity (e.g., cytotoxicity, etc.) can be assessed off chip by various methods (e.g., cell lysate luminescence assay, genomic analysis, etc.).\nFor example, an in vitro placenta device was exposed to trypan blue by injection into the maternal channel at 3 μL/min for 4 min and then incubated at 37° C. for 15 min, similar to protocols in literature^7.8. […] White arrows show barrier degradation, and dark arrows show apoptosis following trypan blue exposure."}, "[3]": {"test_system": "trophoblast channel cells", "assay": "Cytotoxicity by adenylate kinase release (luminescence), samples from trophoblast channel", "format": "cell-based", "details": "luminescence plate reader, FIG. 11", "protocol": "Following exposure, FSS was injected into the maternal channel and permeability assayed. Permeability in the devices was 10-fold higher in trypan blue treated devices compared to controls. An additional assay was performed to determine cytotoxicity as it relates to the release of adenylate kinase. A positive control (100% death by lysis buffer) and a negative control (media only) were included for comparison. Samples were taken from the trophoblast channel and placed in a low volume, white walled […] plate for luminescence analysis using a plate reader. […] The increase in AK release in arbitrary luminescence units compares the toxic exposure of trypan blue to positive and negative controls."}}, "note": "Counter-ions that a name gives are not always drawn.", "data": [{"smiles": "O=C1OC2(c3ccc(O)cc3Oc3cc(O)ccc32)c2ccccc21", "note": "[FSS, fluorescein sodium salt]", "values": [{"measurement": "increase in average PI compared to 4 kD TRITC-dextran", "setting": "[1]", "value": "~2", "unit": "fold"}]}, {"smiles": "Cc1cc(-c2ccc(/N=N/c3c(S(=O)(=O)O)cc4cc(S(=O)(=O)O)cc(N)c4c3O)c(C)c2)ccc1/N=N/c1c(S(=O)(=O)O)cc2cc(S(=O)(=O)O)cc(N)c2c1O", "note": "[trypan blue]", "values": [{"measurement": "morphological effects of exposure at the intervillous space-trophoblast barrier", "setting": "[2]", "value": "evidence of barrier degradation (e.g., cell death and detachment) and apoptosis"}, {"measurement": "increase in adenylate kinase release", "setting": "[3]", "value": 1.5, "unit": "fold"}]}]}
